Our source for the relative viability values is the supplement of paper PMC10307832.

Common to all, as to assay: relative viability (nuclei count vs DMSO), 5 days (fraction); higher = more cells survive
Compound in the experiment “KN-93 + Linsitinib”: CN(C/C=C/C1=CC=C(C=C1)Cl)CC2=CC=CC=C2N(CCO)S(=O)(=O)C3=CC=C(C=C3)OC [KN-93] + C[C@]1(O)C[C@@H](c2nc(-c3ccc4ccc(-c5ccccc5)nc4c3)c3c(N)nccn32)C1 [Linsitinib] (partner 1 µM)
A digest of the protocol:
(§1)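 A single step with final 0.05% Triton X-100, 1% formaldehyde and 1 ug/ml Hoechst fixed the cells and stained nuclei 5 days after treatment. Lung cancer cell lines in 1536-well plates had been treated by pin tool the day after seeding with one drug alone or a fixed anchor-drug dose plus five library-drug doses (not always all listed) in √10 steps, and nuclei were counted on 4× images. Relative viability is the ratio of nuclei in treated wells to nuclei in vehicle wells, taken as the median of duplicate plates.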

Compound in the experiment “KN-93 + Pictilisib”: CN(C/C=C/C1=CC=C(C=C1)Cl)CC2=CC=CC=C2N(CCO)S(=O)(=O)C3=CC=C(C=C3)OC [KN-93] + CS(=O)(=O)N1CCN(Cc2cc3nc(-c4cccc5[nH]ncc45)nc(N4CCOCC4)c3s2)CC1 [Pictilisib] (partner 1 µM)
An outline of the steps:
as §1

Compound in the experiment “KN-93 + Crizotinib”: CN(C/C=C/C1=CC=C(C=C1)Cl)CC2=CC=CC=C2N(CCO)S(=O)(=O)C3=CC=C(C=C3)OC [KN-93] + C[C@@H](Oc1cc(-c2cnn(C3CCNCC3)c2)cnc1N)c1c(Cl)ccc(F)c1Cl [Crizotinib] (partner 1 µM)
An outline of the steps: as §1

Compound in the experiment “KN-93 + Luminespib”: CN(C/C=C/C1=CC=C(C=C1)Cl)CC2=CC=CC=C2N(CCO)S(=O)(=O)C3=CC=C(C=C3)OC [KN-93] + CCNC(=O)c1noc(-c2cc(C(C)C)c(O)cc2O)c1-c1ccc(CN2CCOCC2)cc1 [Luminespib] (partner 0.01 µM)
A digest of the protocol:
as §1

Compound in the experiment “KN-93 + Phenformin”: CN(C/C=C/C1=CC=C(C=C1)Cl)CC2=CC=CC=C2N(CCO)S(=O)(=O)C3=CC=C(C=C3)OC [KN-93] + N=C(N)NC(=N)NCCc1ccccc1 [Phenformin] (partner 250 µM)
A digest of the protocol:
as §1

As for HCC-827, the relative viability in the experiment with KN-93 + Linsitinib (first compound 0.08 µM) worked out at 1.02; with KN-93 + Linsitinib (first compound 0.253 µM), 0.921; with KN-93 + Linsitinib (first compound 2.53 µM), 0.939; with KN-93 + Linsitinib (first compound 8 µM), 0.875; with KN-93 + Pictilisib (first compound 0.08 µM), 1.08; with KN-93 + Pictilisib (first compound 0.253 µM) it was 0.982. Besides, the relative viability was determined as 1.03 in the experiment with KN-93 + Pictilisib (first compound 2.53 µM); 0.986 with KN-93 + Pictilisib (first compound 8 µM); 0.993 in the experiment with KN-93 + Crizotinib (first compound 0.08 µM); 0.996 with KN-93 + Crizotinib (first compound 0.253 µM); 0.908 with KN-93 + Crizotinib (first compound 2.53 µM); 0.778 with KN-93 + Crizotinib (first compound 8 µM). Besides, the relative viability in the experiment with KN-93 + Luminespib (first compound 0.08 µM) was determined as 0.642; with KN-93 + Luminespib (first compound 0.253 µM), 0.836; with KN-93 + Luminespib (first compound 2.53 µM) it was 0.496; with KN-93 + Luminespib (first compound 8 µM), 0.465; with KN-93 + Phenformin (first compound 0.08 µM) it was 0.417; with KN-93 + Phenformin (first compound 0.253 µM), 0.385. Besides, the values for the relative viability with KN-93 + Phenformin (first compound 2.53 µM) and with KN-93 + Phenformin (first compound 8 µM) were 0.479 and 0.407, respectively.
Take H3255: the relative viability with KN-93 + Linsitinib (first compound 0.08 µM) was determined as 0.802; with KN-93 + Linsitinib (first compound 0.253 µM), 1.09; in the experiment with KN-93 + Linsitinib (first compound 2.53 µM), 1.08; with KN-93 + Linsitinib (first compound 8 µM), 0.584; with KN-93 + Pictilisib (first compound 0.08 µM) it was 0.422; in the experiment with KN-93 + Pictilisib (first compound 0.253 µM), 0.527. Besides, the relative viability was determined as 0.492 in the experiment with KN-93 + Pictilisib (first compound 2.53 µM); 0.391 with KN-93 + Pictilisib (first compound 8 µM); 0.995 in the experiment with KN-93 + Crizotinib (first compound 0.08 µM); 0.952 in the experiment with KN-93 + Crizotinib (first compound 0.253 µM); 0.48 in the experiment with KN-93 + Crizotinib (first compound 2.53 µM); 0.623 in the experiment with KN-93 + Crizotinib (first compound 8 µM). Further, the relative viability came to 0.85 in the experiment with KN-93 + Luminespib (first compound 0.08 µM); 0.97 in the experiment with KN-93 + Luminespib (first compound 0.253 µM); 0.774 with KN-93 + Luminespib (first compound 2.53 µM); 0.776 with KN-93 + Luminespib (first compound 8 µM); 0.383 in the experiment with KN-93 + Phenformin (first compound 0.08 µM); 0.339 in the experiment with KN-93 + Phenformin (first compound 0.253 µM). The figures for the relative viability in the experiment with KN-93 + Phenformin (first compound 2.53 µM) and in the experiment with KN-93 + Phenformin (first compound 8 µM) were 0.401 and 0.362, respectively.
As to LCLC-103H, the relative viability with KN-93 + Linsitinib (first compound 0.08 µM) came out at 1.17; with KN-93 + Linsitinib (first compound 0.253 µM), 1.05; in the experiment with KN-93 + Linsitinib (first compound 2.53 µM), 0.963; with KN-93 + Linsitinib (first compound 8 µM), 0.877; in the experiment with KN-93 + Pictilisib (first compound 0.08 µM), 0.617; with KN-93 + Pictilisib (first compound 0.253 µM), 0.581. Also, the relative viability worked out at 0.614 in the experiment with KN-93 + Pictilisib (first compound 2.53 µM); 0.537 with KN-93 + Pictilisib (first compound 8 µM); 1.06 with KN-93 + Crizotinib (first compound 0.08 µM); 1.13 in the experiment with KN-93 + Crizotinib (first compound 0.253 µM); 1.08 with KN-93 + Crizotinib (first compound 2.53 µM); 0.776 in the experiment with KN-93 + Crizotinib (first compound 8 µM). Moreover, the relative viability in the experiment with KN-93 + Luminespib (first compound 0.08 µM) was 0.948; in the experiment with KN-93 + Luminespib (first compound 0.253 µM), 1.22; in the experiment with KN-93 + Luminespib (first compound 2.53 µM) it was 1.04; in the experiment with KN-93 + Luminespib (first compound 8 µM) it was 0.756; with KN-93 + Phenformin (first compound 0.08 µM), 0.319; with KN-93 + Phenformin (first compound 0.253 µM), 0.341. The relative viability with KN-93 + Phenformin (first compound 2.53 µM) stood at 0.359; with KN-93 + Phenformin (first compound 8 µM), 0.31.
Regarding SK-MES-1, the relative viability with KN-93 + Linsitinib (first compound 0.08 µM) stood at 1.06; with KN-93 + Linsitinib (first compound 0.253 µM), 1.05; with KN-93 + Linsitinib (first compound 2.53 µM), 1.12; with KN-93 + Linsitinib (first compound 8 µM) it was 1.02; with KN-93 + Pictilisib (first compound 0.08 µM), 0.332; in the experiment with KN-93 + Pictilisib (first compound 0.253 µM), 0.327. For the same cell line, the relative viability is 0.419 with KN-93 + Pictilisib (first compound 2.53 µM); 0.253 with KN-93 + Pictilisib (first compound 8 µM); 1.05 in the experiment with KN-93 + Crizotinib (first compound 0.08 µM); 0.979 with KN-93 + Crizotinib (first compound 0.253 µM); 1.27 with KN-93 + Crizotinib (first compound 2.53 µM); 0.8 in the experiment with KN-93 + Crizotinib (first compound 8 µM). Moreover, the relative viability with KN-93 + Luminespib (first compound 0.08 µM) is 0.899; with KN-93 + Luminespib (first compound 0.253 µM) it was 0.69; in the experiment with KN-93 + Luminespib (first compound 2.53 µM), 0.728; with KN-93 + Luminespib (first compound 8 µM) it was 0.286; in the experiment with KN-93 + Phenformin (first compound 0.08 µM), 0.554; in the experiment with KN-93 + Phenformin (first compound 0.253 µM) it was 0.751. Also, the values for the relative viability in the experiment with KN-93 + Phenformin (first compound 2.53 µM) and in the experiment with KN-93 + Phenformin (first compound 8 µM) were 0.699 and 0.571, respectively.
